Target: Factor D (Homo sapiens (Human), UniProt P00746)
Assay: biochemical
Format: biochemical
Conditions: read-out: IC50

Chain of Factor D (P00746 26-253): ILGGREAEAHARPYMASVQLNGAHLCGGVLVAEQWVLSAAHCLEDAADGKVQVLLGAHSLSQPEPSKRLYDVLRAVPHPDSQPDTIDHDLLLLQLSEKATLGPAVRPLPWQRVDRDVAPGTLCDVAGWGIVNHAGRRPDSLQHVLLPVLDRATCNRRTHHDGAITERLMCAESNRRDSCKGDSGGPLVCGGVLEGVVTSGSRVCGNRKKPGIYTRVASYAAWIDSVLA

NC(=O)n1cc(NC(=O)N2C[C@@H](O)C[C@H]2C(=O)NCc2cccc(Cl)c2F)c2ccccc21 [Example 331, (2S,4S)-4-Hydroxy-pyrrolidine-1,2-dicarboxylic acid 1-[(1-carbamoyl-1H-indol-3-yl)-amide] 2-(3-chloro-2-fluoro-benzylamide)]
IC50: 35 nM

CC(C)(C)c1cc(NC(=O)[C@@H]2C[C@@H](F)CN2C(=O)Nc2cn(C(N)=O)c3ccccc23)ccn1 [Example 317, (2S,4R)-4-Fluoro-pyrrolidine-1,2-dicarboxylic acid 2-[(2-tert-butyl-pyridin-4-yl)-amide] 1-[(1-carbamoyl-1H-indol-3-yl)-amide]]
IC50: 2800 nM

CN(C)CCN(C)Cc1cc(Cl)c(F)c(CNC(=O)[C@@H]2C[C@@H](F)CN2C(=O)Nc2cn(C(N)=O)c3ccccc23)c1 [Example 17, (2S,4R)-4-Fluoro-pyrrolidine-1,2-dicarboxylic acid 1-[(1-carbamoyl-1H-indol-3-yl)-amide] 2-(3-chloro-5-{[(2-dimethylamino-ethyl)-methyl-amino]-methyl}-2-fluoro-benzylamide)]
IC50: 4050 nM

CC(=O)c1cn(CC(=O)N2[C@@H]3C[C@@H]3C[C@H]2C(=O)N[C@H](CCO)c2cccc(Cl)c2F)c2ncccc12 [Example 557, (1R,3S,5R)-2-[2-(3-Acetyl-pyrrolo[2,3-b]pyridin-1-yl)-acetyl]-2-aza-bicyclo[3.1.0] hexane-3-carboxylic acid [(R)-1-(3-chloro-2-fluoro-phenyl)-3-hydroxy-propyl]-amide]
IC50: 134 nM

NC(=O)n1cc(NC(=O)N2C[C@H](F)C[C@H]2C(=O)N[C@H](CO)c2cccc(Cl)c2F)c2ccccc21 [Example 5, (2S,4R)-4-Fluoro-pyrrolidine-1,2-dicarboxylic acid 1-[(1-carbamoyl-1H-indol-3-yl)-amide] 2-{[(S)-1-(3-chloro-2-fluoro-phenyl)-2-hydroxy-ethyl]-amide}]
IC50: 30 nM

COC(=O)[C@H](CC(C)C)NC(=O)[C@@H]1C[C@H]2C[C@H]2N1C(=O)Cn1nc(C(C)=O)c2cccnc21 [Example 766, (S)-2-({(1R,3S,5R)-2-[2-(3-Acetyl-pyrazolo[3,4-b]pyridin-1-yl)-acetyl]-2-aza-bicyclo[3.1.0]hexane-3-carbonyl}-amino)-4-methyl-pentanoic acid methyl ester]
IC50: 216 nM

CCc1cc2c(C(N)=O)nn(CC(=O)N3C[C@H](F)[C@@H](OC)[C@H]3C(=O)NCc3cccc(Cl)c3F)c2cn1 [Example 697, 1-{2-[(2S,3S,4S)-2-(3-Chloro-2-fluoro-benzylcarbamoyl)-4-fluoro-3-methoxy-pyrrolidin-1-yl]-2-oxo-ethyl}-5-ethyl-1H-pyrazolo[3,4-c]pyridine-3-carboxylic acid amide]
IC50: 3 nM

COc1ccc(Cl)cc1CNC(=O)[C@@H]1C[C@H](N)CN1C(=O)Nc1cn(C(N)=O)c2ccccc12 [Example 53, (2S,4S)-4-Amino-pyrrolidine-1,2-dicarboxylic acid 1-[(1-carbamoyl-1H-indol-3-yl)-amide] 2-(5-chloro-2-methoxy-benzylamide)]
IC50: 1750 nM

CCc1ccc2c(NC(=O)N3CCC[C@H]3C(=O)Nc3cccc(OC(F)(F)F)c3)cn(C(N)=O)c2c1 [Example 288, (S)-Pyrrolidine-1,2-dicarboxylic acid 1-[(1-carbamoyl-6-ethyl-1H-indol-3-yl)-amide] 2-[(3-trifluoromethoxy-phenyl)-amide]]
IC50: 1100 nM

NC(=O)c1cn(CC(=O)N2C[C@H](F)C[C@H]2C(=O)NCc2cccc(Cl)c2F)c2cc(Cl)ccc12 [Example 491, 6-Chloro-1-{2-[(2S,4R)-2-(3-chloro-2-fluoro-benzyl-carbamoyl)-4-fluoro-pyrrolidin-1-yl]-2-oxo-ethyl}-1H-indole-3-carboxylic acid amide]
IC50: 28 nM

NC(=O)n1cc(CC(=O)N2C[C@H](F)C[C@H]2C(=O)NCc2cccc(Cl)c2F)c2ccccc21 [Example 448, 3-{2-[(2S,4R)-2-(3-Chloro-2-fluoro-benzylcarbamoyl)-4-fluoro-pyrrolidin-1-yl]-2-oxo-ethyl}-indole-1-carboxylic acid amide]
IC50: 26 nM

NC(=O)c1nn(CC(=O)N2[C@@H]3C[C@@H]3C[C@H]2C(=O)Nc2cccc(-c3ccccc3Cl)c2F)c2cnccc12 [Example 685, 1-{2-[(1R,3S,5R)-3-(2′-Chloro-2-fluoro-biphenyl-3-ylcarbamoyl)-2-aza-bicyclo[3.1.0]hex-2-yl]-2-oxo-ethyl}-1H-pyrazolo[3,4-c] pyridine-3-carboxylic acid amide]
IC50: 5 nM

NC(=O)n1cc(NC(=O)N2C[C@@H](N)C[C@H]2C(=O)NC2CCOc3ccc(Cl)cc32)c2ccccc21 (stereo partly drawn) [Example 80, (2S,4S)-4-Amino-pyrrolidine-1,2-dicarboxylic acid 1-[(1-carbamoyl-1H-indol-3-yl)-amide] 2-[(6-chloro-chroman-4-yl)-amide]]
IC50: 15000 nM

CO[C@H]1[C@@H](C(=O)N[C@H](C)c2cccc(Cl)c2F)N(C(=O)Cn2nc(C(N)=O)c3cccnc32)C[C@@H]1F [Example 643, 1-(2-{(2S,3S,4S)-2-[(R)-1-(3-Chloro-2-fluoro-phenyl)-ethylcarbamoyl]-4-fluoro-3-methoxy-pyrrolidin-1-yl}-2-oxo-ethyl)-1H-pyrazolo[3,4-b]pyridine-3-carboxylic acid amide]
IC50: 25 nM

COCCOc1ccc2c(c1)c(NC(=O)N1C[C@](C)(F)C[C@H]1C(=O)NCc1cccc(Cl)c1F)cn2C(N)=O [Example 132, (2S,4R)-4-Fluoro-methyl-pyrrolidine-1,2-dicarboxylic acid 1-{[1-carbamoyl-5-(2-methoxy-ethoxy)-1H-indol-3-yl]-amide} 2-(3-chloro-2-fluoro-benzylamide)]
IC50: 18 nM

CC(=O)c1cn(CC(=O)N2C[C@](C)(F)C[C@H]2C(=O)NCc2cccc(Cl)c2F)c2ccccc12 [Example 511, (2S,4R)-1-[2-(3-Acetyl-indol-1-yl)-acetyl]-4-fluoro-4-methyl-pyrrolidine-2-carboxylic acid 3-chloro-2-fluoro-benzylamide]
IC50: 71 nM

C[C@H](CNC(=O)[C@@H]1C[C@H](N)CN1C(=O)Nc1cn(C(N)=O)c2ccccc12)c1ccccc1 [Example 85, (2S,4S)-4-Amino-pyrrolidine-1,2-dicarboxylic acid 1-[(1-carbamoyl-1H-indol-3-yl)-amide] 2-[((S)-2-phenyl-propyl)-amide]]
IC50: 11400 nM

NC(=O)n1cc(NC(=O)N2C[C@@H](CO)C[C@H]2C(=O)NCc2cccc(Cl)c2F)c2ccccc21 [Example 312, (2S,4S)-4-Hydroxymethyl-pyrrolidine-1,2-dicarboxylic acid 1-[(1-carbamoyl-1H-indol-3-yl)-amide] 2-(3-chloro-2-fluoro-benzylamide)]
IC50: 115 nM

NC(=O)c1nn(CC(=O)N2CCS[C@H]2C(=O)NCc2cccc(Cl)c2F)c2cnccc12 [Example 657, 1-{2-[(S)-2-(3-Chloro-2-fluoro-benzylcarbamoyl)-thiazolidin-3-yl]-2-oxo-ethyl}-1H-pyrazolo[3,4-c]pyridine-3-carboxylic acid amide]
IC50: 78 nM

NC(=O)c1nn(CC(=O)N2[C@H](C(=O)Nc3cccc(OC(F)(F)F)c3F)C[C@@]3(CO)C[C@@H]23)c2ccccc12 [Example 758, 1-{2-[(1R,3S,5S)-3-(2-Fluoro-3-trifluoromethoxy-phenylcarbamoyl)-5-hydroxymethyl-2-aza-bicyclo[3.1.0]hex-2-yl]-2-oxo-ethyl}-1H-indazole-3-carboxylic acid amide]
IC50: 64 nM

NC(=O)n1cc(NC(=O)N2CC[C@@H](O)[C@H]2C(=O)NCc2cccc(Cl)c2)c2ccccc21 [Example 177, (2S,3R)-3-Hydroxy-pyrrolidine-1,2-dicarboxylic acid 1-[(1-carbamoyl-1H-indol-3-yl)-amide] 2-(3-chloro-benzylamide)]
IC50: 85 nM

NC[C@@]1(F)C[C@@H](C(=O)NCc2cccc(Cl)c2F)N(C(=O)Nc2cn(C(N)=O)c3ccccc23)C1 [Example 409, 2S,4S)-4-Aminomethyl-4-fluoro-pyrrolidine-1,2-dicarboxylic acid 1-[(1-carbamoyl-1H-indol-3-yl)-amide]2-(3-chloro-2-fluoro-benzylamide]
IC50: 25 nM

NC[C@@]1(F)C[C@@H](C(=O)Nc2cccc(OC(F)(F)F)c2)N(C(=O)Nc2cn(C(N)=O)c3ccccc23)C1 [Example 414, (2S,4S)-4-Aminomethyl-4-fluoro-pyrrolidine-1,2-dicarboxylic acid 1-[(1-carbamoyl-1H-indol-3-yl)-amide]2-[(3-trifluoromethoxy-phenyl)-amide]]
IC50: 311 nM

NC(=O)n1cc(NC(=O)N2C[C@](F)(CN3CCOCC3)C[C@H]2C(=O)NCc2cccc(Cl)c2F)c2ccccc21 [Example 209, (2S,4R)-4-Fluoro-morpholin-4-ylmethyl-pyrrolidine-1,2-dicarboxylic acid 1-[(1-carbamoyl-1H-indol-3-yl)-amide] 2-(3-chloro-2-fluoro-benzylamide)]
IC50: 1900 nM

CC[C@H](C)[C@H](NC(=O)[C@@H]1C[C@@H](F)CN1C(=O)Nc1cn(C(N)=O)c2ccccc12)C(=O)O [Example 25, (2S,3S)-2-{[(2S,4R)-1-(1-Carbamoyl-1H-indol-3-ylcarbamoyl)-4-fluoro-pyrrolidine-2-carbonyl]-amino}-3-methyl-pentanoic acid]
IC50: 6750 nM

COC(=O)[C@H]1C[C@@H](C(=O)NCc2c(F)ccc(Cl)c2F)N(C(=O)Nc2cn(C(N)=O)c3ccccc23)C1 [Example 353, (3S,5S)-1-(1-carbamoyl-1H-indol-3-ylcarbamoyl)-5-(3-chloro-2,6-difluoro-benzylcarbamoyl)-pyrrolidine-3-carboxylic acid methyl ester]
IC50: 252 nM

NC(=O)n1cc(NC(=O)N2[C@@H]3C[C@@H]3C[C@H]2C(=O)NCc2cccc(Cl)c2F)c2ccc(OCC(=O)O)cc21 [Example 376, (1-Carbamoyl-3-{[(1R,3S,5R)-3-(3-chloro-2-fluoro-benzylcarbamoyl)-2-aza-bicyclo[3.1.0]hexane-2-carbonyl]-amino}-1H-indol-6-yloxy)-acetic acid]
IC50: 247 nM

COC(=O)c1ccc2c(C(C)=O)cn(CC(=O)N3C[C@H](F)C[C@H]3C(=O)NCc3cccc(Cl)c3F)c2c1 [Example 542, 3-Acetyl-1-{2-[(2S,4R)-2-(3-chloro-2-fluoro-benzylcarbamoyl)-4-fluoro-pyrrolidin-1-yl]-2-oxo-ethyl}-1H-indole-6-carboxylic acid methyl ester]
IC50: 19 nM

Source: patent publication US9085555B2, “Complement pathway modulators and uses thereof” (priority 2011, dated 2015)
